From patent US20220280594A1, “APPLICATION OF POLYPEPTIDE OR DERIVATIVE THEREOF” (CHENGDU HUITAI BIOMEDICINE CO., LTD., priority 2019, published 2022)
Ends that are not written are not given here. PEG = not defined here

Assays:
[1] = system: human prostate cancer cells (22RV1); experiment: scratch assay, migration of 22RV1 cells; format: cell-based; conditions: 22RV1, 10 μM, 48 hours; control group 25.41 ± 5.01
Procedure, shortened: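 22RV1 monolayers (seeded 1-2×10^5 cells/well) were scratched, washed, then given 2% FBS medium with 10 μM polypeptide or PBS, triplicate wells, for 48 h. Migration rate (%) = (original − current scratch width)/original width ×100, from ≥3 images per well.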

[2] = system: human breast cancer cells (MDA-MB-231); experiment: scratch assay, migration of MDA-MB-231 cells; format: cell-based; conditions: MDA-MB-231, 10 μM, 48 hours; control group 36.19 ± 5.15
Procedure, shortened: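 MDA-MB-231 monolayers (1-2×10^5 cells/well) were scratched, then kept 48 h in medium with 2% FBS containing polypeptide at 10 μM, with a PBS control, in triplicate wells. Migration rate (%) was taken from scratch width: (original − current)/original ×100.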

[3] = system: human colon cancer cells (HCT-116); experiment: scratch assay, migration of HCT-116 cells; format: cell-based; conditions: HCT-116, 10 μM, 48 hours; control group 47.78 ± 6.07
Procedure, shortened: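 Confluent HCT-116 monolayers were scratched, washed and cultured 48 h in 2% FBS medium with peptide at 10 μM versus PBS control, triplicate wells. Migration rate (%) = (original minus current scratch width)/original width × 100, from at least 3 images per well.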

[4] = system: human liver cancer cells (HepG2); experiment: scratch assay, migration of HepG2 cells; format: cell-based; conditions: HepG2, 10 μM, 48 hours; control group 71.01 ± 6.63
Procedure, shortened: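 HepG2 monolayers scratched, then cultured 48 h in 2% FBS medium with test polypeptides at 10 μM versus PBS control, triplicate wells. Migration rate (%) computed from original versus current scratch width in images.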

[5] = system: human pancreatic cancer cells (PANC-1); experiment: transwell migration assay, PANC-1 cells; format: cell-based; conditions: PANC-1 transwell migration, 10 μM, 24 hours; control group 360 ± 60
Procedure, shortened: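 Serum-free PANC-1 cells placed in the upper transwell chamber with complete medium below; after 4-5 h, peptide added to the upper chamber at a final 10 μM. Migration ran 24 h at 37 °C; cells on the membrane underside were methanol-fixed, crystal violet-stained and counted by microscopy.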

[6] = system: human lung cancer cells (A549) subcutaneous xenograft; experiment: lung cancer subcutaneous xenograft animal model, intravenous injection; format: in vivo, mice (BALB/c-nu/nu); conditions: intravenous 60 mg/kg once every other day, 20 days; for Weight of tumor (g) (mean ± SD): control 2.53 ± 0.17; for Volume of tumor (mm^3) (mean ± SD): control 3373.26 ± 581.44
Procedure, shortened: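 Female BALB/c-nu/nu mice (4-6 weeks) inoculated subcutaneously with ~2×10^6 A549 cells; grouped once tumours exceeded 100 mm^3. Peptides given intravenously at 60 mg/kg for 20 days versus model control. Tumour weight and volume measured at dissection; body weight recorded every other day.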

[7] = system: human breast cancer cells (MCF-7); experiment: scratch assay, migration of MCF-7 cells; format: cell-based; conditions: MCF-7, 10 μM, 48 hours; control group 30.97 ± 1.79
Procedure, shortened: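 MCF-7 monolayers scratched, then cultured 48 hours in 2% FBS medium with test peptide at 10 μM versus PBS control, triplicate wells. Migration rate (%) = (original − current scratch width)/original width × 100, measured from images.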

[8] = system: human breast cancer cells (MDA-MB-453); experiment: scratch assay, migration of MDA-MB-453 cells; format: cell-based; conditions: MDA-MB-453, 10 μM, 48 hours; control group 32.42 ± 2.04
Procedure, shortened: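 Confluent MDA-MB-453 monolayers were scratched, then treated with peptide at 10 μM in 2% FBS medium for 48 h, with a PBS control and triplicate wells. Migration rate (%) was taken as (original − current scratch width)/original width ×100 from images.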

[9] = system: human non-small cell lung cancer cells (A549); experiment: scratch assay, migration of A549 cells; format: cell-based; conditions: A549, 10 μM, 48 hours; control group 75.31 ± 8.19
Procedure, shortened: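 Confluent A549 monolayers in 24-well plates were scratched, washed with PBS, then cultured 48 h in 2% FBS medium with peptide at 10 μM or PBS control, triplicate wells. Scratch width measured from images; migration rate (%) = (original − current width)/original width × 100.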

Substance | Migration rate (%) (mean ± SD, P) [1] | Migration rate (%) (mean ± SD, P) [2] | Migration rate (%) (mean ± SD, P) [3] | Migration rate (%) (mean ± SD, P) [4] | Number of cells (mean ± SD, P), migrated cells [5] | Weight of tumor (g) (mean ± SD) [6] | Volume of tumor (mm^3) (mean ± SD) [6] | Migration rate (%) (mean ± SD, P) [7] | Migration rate (%) (mean ± SD, P) [8] | Migration rate (%) (mean ± SD, P) [9]
N14: SEQ ID NO: 1 with deletion of positions 1-5 and addition of one amino acid at the carboxyl terminal (LAKENVTQDAEDNC) | 14.06 ± 2.37,* % | 14.59 ± 5.36,* % | 12.24 ± 2.32,*** % | 48.61 ± 4.63,** % | 263 ± 16,* | 0.7 ± 0.26 g | 1431.61 ± 215.71 mm^3 | 7.05 ± 1.40,*** % | 7.58 ± 2.34,*** % | 15.27 ± 8.75,*** %
N5: SEQ ID NO: 1 with addition of one amino acid at the carboxyl terminal and deletion of positions 1-3 (RFLAKENVTQDAEDNC) | 10.37 ± 3.53,* % | 22.13 ± 3.22,* % | 12.75 ± 2.82,*** % | 19.84 ± 5.04,*** % | 234 ± 27,* | 0.71 ± 0.12 g | 1353.09 ± 422.65 mm^3 | 14.50 ± 2.66,** % | 14.74 ± 3.23,** % | 46.66 ± 5.92,** %
N42: SEQ ID NO: 1 with deletion of positions 1-5 and 15-18, PEG at the amino terminal, one amino acid added at the carboxyl terminal ({PEG}-LAKENVTQDR; reading uncertain) | 5.89 ± 1.02,** % | 17.91 ± 3.66,** % | 6.75 ± 2.33,*** % | 30.92 ± 4.57,** % | 236 ± 14,** | 0.83 ± 0.31 g | 1149.73 ± 346.36 mm^3 | 10.04 ± 2.28,** % | 14.12 ± 9.89,** % | 60.74 ± 3.40,* %
N11: SEQ ID NO: 1 with deletion of positions 15-18 and 1-3 and PEG modification at the amino terminal ({PEG}-RFLAKENVTQD; reading uncertain) | 9.43 ± 2.23,** % | 10.68 ± 5.72,** % | 13.81 ± 2.92,*** % | 53.36 ± 5.49,* % | 239 ± 26,* | 1.3 ± 0.23 g | 1419.28 ± 615.42 mm^3 | 9.34 ± 3.74,** % | 4.49 ± 1.6,*** % | 30.79 ± 6.74,** %
N22: SEQ ID NO: 1 with substitution A7R, deletion of three amino acids at the amino terminal and of positions 15-18 (RFLRKENVTQD) | 6.10 ± 2.72,** % | 16.94 ± 3.17,* % | 7.78 ± 3.07,*** % | 18.61 ± 8.35,*** % | 200 ± 18,*** | 0.89 ± 0.19 g | 1288.08 ± 577.81 mm^3 | 8.79 ± 3.01,** % | 8.54 ± 1.57,** % | 33.59 ± 5.62,** %
